Reference: US9518018B2, “3-alkoxy, thioalkyl and amino-4-amino-6-(substituted)picolinates and their use as herbicides” (Dow AgroSciences LLC, priority 2011, dated 2016)

System: desired test plant species
Test: Foliar-applied postemergence herbicidal activity in direct seeded rice (Table 6)
Type: in vivo
Settings: 21 DAA
Source text: Seeds or nutlets of the desired test plant species were planted in a soil matrix prepared by mixing a loam soil (43 percent silt, 19 percent clay, and 38 percent sand, with a pH of about 8.1 and an organic matter content of about 1.5 percent) and river sand in an 80 to 20 ratio. The soil matrix was contained in plastic pots with a surface area of 139.7 cm^2. When required to ensure good germination and healthy plants, a fungicide treatment and/or other chemical or physical treatment was applied. The plants were grown for 10-17 d in a greenhouse with an approximate 14-h photoperiod which was maintained at about 29° C. during the day and 26° C. during the night. Nutrients and water were added on a regular basis and supplemental lighting was provided with overhead metal halide 1000-Watt lamps as necessary. The plants were employed for testing when they reached the second or third true leaf stage. Treatments consisted of compounds 45, 34, and 66. Weighed amounts of technical compounds were placed in individual 25 mL glass vials and dissolved in 8 mL of 97:3 v/v acetone-DMSO to obtain stock solutions. […] The spray application solutions were prepared by removing 4 mL of the stock solution and diluting with 4 mL of 97:3 v/v acetone-DMSO and continued serial dilution to obtain 1⁄2×, 1⁄4×, 1⁄8×, and 1/16× rates of the high rate. Spray solutions were diluted to the appropriate final concentrations with the addition of 8 mL of an aqueous mixture of 1.875% (v/v) Agri-dex crop oil concentrate. The final 12-mL spray solutions each contained 1.25% (v/v) Agri-dex crop oil concentrate, 32.3% acetone, and 1.0% DMSO. Compound requirements are based upon a 12 mL application volume at a rate of 187 L/ha. Spray solutions were applied to the plant material with an overhead Mandel track sprayer equipped with […] nozzles calibrated to deliver 187 L/ha over an application area of 0.503 square meters (m^2) at a spray height of 18 inches ([…]) above average plant canopy height. Control plants were sprayed in the same manner with the solvent blank. The treated plants and control plants were placed in a greenhouse as described above and watered by sub-irrigation to prevent wash-off of the test compounds. After approximately 3 weeks, the condition of the test plants, compared with that of the untreated plants, was determined visually and scored on a scale of 0 to 100 percent where 0 corresponds to no injury and 100 corresponds to complete kill. By applying the well-accepted probit analysis as described by J. Berkson in Journal of the […], 48, 565 (1953) and by D. Finney in “Probit Analysis” Cambridge University Press (1952) or by plotting the mean data and fitting a logarithmic curve to the portion of the data where there was a dose response using Microsoft Excel®, the above data can be used to calculate GR50 and GR90 values, which are defined as growth reduction factors that correspond to the effective dose of herbicide required to kill or control 50 percent or 90 percent, respectively, of a target plant.

COc1c(C(=O)OCc2ccccc2)nc(-c2ccc(Cl)c(OC)c2F)c(F)c1N [Compound 66, benzyl 4-amino-6-(4-chloro-2-fluoro-3-methoxyphenyl)-5-fluoro-3-methoxypicolinate]
Mean Visual Injury (%)-21 Days After Application AESSE (AESSE (Aeschynomene sensitiva, sensitive jointvetch), 4.38 g ae/ha): 100% | Mean Visual Injury (%)-21 Days After Application AESSE (AESSE (Aeschynomene sensitiva, sensitive jointvetch), 8.75 g ae/ha): 100% | Mean Visual Injury (%)-21 Days After Application AESSE (AESSE (Aeschynomene sensitiva, sensitive jointvetch), 17.5 g ae/ha): 100% | Mean Visual Injury (%)-21 Days After Application AESSE (AESSE (Aeschynomene sensitiva, sensitive jointvetch), 35 g ae/ha): 100% | Mean Visual Injury (%)-21 Days After Application AESSE (AESSE (Aeschynomene sensitiva, sensitive jointvetch), 70 g ae/ha): 100% | GR50 AESSE (AESSE (Aeschynomene sensitiva, sensitive jointvetch), dose to kill or control 50 percent): <4.38 g ae/ha | GR90 AESSE (AESSE (Aeschynomene sensitiva, sensitive jointvetch), dose to kill or control 90 percent): <4.38 g ae/ha | Mean Visual Injury (%)-21 Days After Application BRAPP (BRAPP (Brachiaria platyphylla, broadleaf signalgrass), 2.19 g ae/ha): 53% | Mean Visual Injury (%)-21 Days After Application BRAPP (BRAPP (Brachiaria platyphylla, broadleaf signalgrass), 4.38 g ae/ha): 72% | Mean Visual Injury (%)-21 Days After Application BRAPP (BRAPP (Brachiaria platyphylla, broadleaf signalgrass), 8.75 g ae/ha): 83% | Mean Visual Injury (%)-21 Days After Application BRAPP (BRAPP (Brachiaria platyphylla, broadleaf signalgrass), 17.5 g ae/ha): 90% | Mean Visual Injury (%)-21 Days After Application BRAPP (BRAPP (Brachiaria platyphylla, broadleaf signalgrass), 35 g ae/ha): 87% | Mean Visual Injury (%)-21 Days After Application BRAPP (BRAPP (Brachiaria platyphylla, broadleaf signalgrass), 70 g ae/ha): 93% | GR50 BRAPP (BRAPP (Brachiaria platyphylla, broadleaf signalgrass), dose to kill or control 50 percent): <2.19 g ae/ha | GR90 BRAPP (BRAPP (Brachiaria platyphylla, broadleaf signalgrass), dose to kill or control 90 percent): 34.4 g ae/ha | Mean Visual Injury (%)-21 Days After Application CYPDI (CYPDI (Cyperus difformis, small-flower flatsedge), 2.19 g ae/ha): 70% | Mean Visual Injury (%)-21 Days After Application CYPDI (CYPDI (Cyperus difformis, small-flower flatsedge), 4.38 g ae/ha): 91% | Mean Visual Injury (%)-21 Days After Application CYPDI (CYPDI (Cyperus difformis, small-flower flatsedge), 8.75 g ae/ha): 96% | Mean Visual Injury (%)-21 Days After Application CYPDI (CYPDI (Cyperus difformis, small-flower flatsedge), 17.5 g ae/ha): 100% | Mean Visual Injury (%)-21 Days After Application CYPDI (CYPDI (Cyperus difformis, small-flower flatsedge), 35 g ae/ha): 99% | Mean Visual Injury (%)-21 Days After Application CYPDI (CYPDI (Cyperus difformis, small-flower flatsedge), 70 g ae/ha): 97% | GR50 CYPDI (CYPDI (Cyperus difformis, small-flower flatsedge), dose to kill or control 50 percent): <2.19 g ae/ha | GR90 CYPDI (CYPDI (Cyperus difformis, small-flower flatsedge), dose to kill or control 90 percent): 6.6 g ae/ha | Mean Visual Injury (%)-21 Days After Application CYPES (CYPES (Cyperus esculentus, yellow nutsedge), 2.19 g ae/ha): 60% | Mean Visual Injury (%)-21 Days After Application CYPES (CYPES (Cyperus esculentus, yellow nutsedge), 4.38 g ae/ha): 67% | Mean Visual Injury (%)-21 Days After Application CYPES (CYPES (Cyperus esculentus, yellow nutsedge), 8.75 g ae/ha): 93% | Mean Visual Injury (%)-21 Days After Application CYPES (CYPES (Cyperus esculentus, yellow nutsedge), 35 g ae/ha): 94% | Mean Visual Injury (%)-21 Days After Application CYPES (CYPES (Cyperus esculentus, yellow nutsedge), 70 g ae/ha): 95% | GR50 CYPES (CYPES (Cyperus esculentus, yellow nutsedge), dose to kill or control 50 percent): <2.19 g ae/ha | GR90 CYPES (CYPES (Cyperus esculentus, yellow nutsedge), dose to kill or control 90 percent): 13.1 g ae/ha | Mean Visual Injury (%)-21 Days After Application CYPIR (CYPIR (Cyperus iria, rice flatsedge), 2.19 g ae/ha): 43% | Mean Visual Injury (%)-21 Days After Application CYPIR (CYPIR (Cyperus iria, rice flatsedge), 4.38 g ae/ha): 81% | Mean Visual Injury (%)-21 Days After Application CYPIR (CYPIR (Cyperus iria, rice flatsedge), 8.75 g ae/ha): 99% | Mean Visual Injury (%)-21 Days After Application CYPIR (CYPIR (Cyperus iria, rice flatsedge), 17.5 g ae/ha): 100% | Mean Visual Injury (%)-21 Days After Application CYPIR (CYPIR (Cyperus iria, rice flatsedge), 35 g ae/ha): 100% | Mean Visual Injury (%)-21 Days After Application CYPIR (CYPIR (Cyperus iria, rice flatsedge), 70 g ae/ha): 99% | GR50 CYPIR (CYPIR (Cyperus iria, rice flatsedge), dose to kill or control 50 percent): 2.4 g ae/ha | GR90 CYPIR (CYPIR (Cyperus iria, rice flatsedge), dose to kill or control 90 percent): 6.4 g ae/ha | Mean Visual Injury (%)-21 Days After Application ECHCG (ECHCG (Echinochloa crus-galli, barnyardgrass), 2.19 g ae/ha): 78% | Mean Visual Injury (%)-21 Days After Application ECHCG (ECHCG (Echinochloa crus-galli, barnyardgrass), 4.38 g ae/ha): 86% | Mean Visual Injury (%)-21 Days After Application ECHCG (ECHCG (Echinochloa crus-galli, barnyardgrass), 8.75 g ae/ha): 95% | Mean Visual Injury (%)-21 Days After Application ECHCG (ECHCG (Echinochloa crus-galli, barnyardgrass), 17.5 g ae/ha): 96% | Mean Visual Injury (%)-21 Days After Application ECHCG (ECHCG (Echinochloa crus-galli, barnyardgrass), 35 g ae/ha): 97% | Mean Visual Injury (%)-21 Days After Application ECHCG (ECHCG (Echinochloa crus-galli, barnyardgrass), 70 g ae/ha): 95% | GR50 ECHCG (ECHCG (Echinochloa crus-galli, barnyardgrass), dose to kill or control 50 percent): <42.19 g ae/ha | GR90 ECHCG (ECHCG (Echinochloa crus-galli, barnyardgrass), dose to kill or control 90 percent): 8.3 g ae/ha | Mean Visual Injury (%)-21 Days After Application ECHCO (ECHCO (Echinochloa colonum, junglerice), 2.19 g ae/ha): 62%
